Consider four molecules from US6903219B2 (dated 2005).

As a reminder, the melting point is the temperature of the solid-liquid transition. `CCCO[C@H]1[C@H](C)OC(=O)[C@@H](NC(=O)c2nccc(OC)c2O)COC(=O)[C@@H]1Cc1ccccc1` came in with a melting point of 150 to 152 °C.

Regarding `C=C(C)CO[C@H]1[C@H](C)OC(=O)[C@@H](NC(=O)c2nccc(OC)c2OCc2ccccc2)COC(=O)[C@@H]1Cc1ccccc1`, the melting point was in the range of 50 to 52 °C.

`COc1ccnc(C(=O)N[C@H]2COC(=O)[C@H](Cc3ccccc3)[C@@H](OCC(C)C)[C@H](C)OC2=O)c1O`: the melting point fell in the range of 168 to 169 °C.

The molecule `C=C(C)CO[C@H]1[C@H](C)OC(=O)[C@@H](NC(=O)c2nccc(OC)c2OCOC(C)=O)COC(=O)[C@@H]1Cc1ccccc1` returned a melting point of 102 to 104 °C.
